Measured values as given in PMC4995014, “Identification of ABC Transporter Interaction of a Novel Cyanoquinoline Radiotracer and Implications for Tumour Imaging by Positron Emission Tomography” (PLoS ONE, 2016).

How the values were obtained:
Type in all cases: cell-based
[1] = tested on: active mutant EGFR; test: Inhibition of EGFR autophosphorylation in active mutant EGFR expressing cell lines (H1650, PC9, H3255); details: H1650 (del 746–750), PC9 (del 746–750) and H3255 (L858R) cells; read-out: IC50 p-EGFR Y1068 in active mutant EGFR expressing cell lines
Experimental: Affinity of the cyanoquinolines for EGFR was established by measuring their inhibition of EGFR autophosphorylation via western blot. Cells were seeded in 6 well plates and following 24 h of growth, were subject to overnight serum starvation. The cells were then treated with increasing concentrations of cyanoquinolines prepared in serum free growth media from a DMSO stock (final DMSO concentration < 1%) for 3 h at 37°C, and stimulated for receptor autophosphorylation by addition of 100 ng/mL of EGF during the last 15 minutes of drug incubation. After 3 h the cells were placed on ice, media removed and then the cells were washed two times with ice cold phosphate buffered saline (PBS). Lysates were analysed by western blot to measure changes to p-EGFR Y1068.
Cell lysates were prepared by addition of radioimmunoprecipitation assay (RIPA) buffer (50mM Tris-HCl pH 7.2, 150mM NaCl, 1% NP40, 1% sodium deoxycholate, 0.1% sodium dodecyl sulfate) supplemented with 1 x protease and phosphatase inhibitor cocktail (1mM 4-(2-Aminoethyl)benzenesulfonylfluoride hydrochloride, 800 nM aprotinin, 50 μM bestatin, 15 μM E-64, 5μM EDTA, 20 μM leupeptin, 10 μM pepstatin A; Thermo scientific, Waltham, Massachusetts, USA). […] Cellular protein levels were assessed using a bicinchoninic acid (BCA) protein assay kit according to the manufacturer’s instructions (Thermo scientific). […]

[2] = tested on: 3T3-MDR1 cells; test: SRB cell viability assay in 3T3-MDR1 cells (ABCB1 expressing); details: GI50 3T3-MDR1 over GI50 3T3, without zosuquidar
Experimental: (§1) Cell viability by the sulforhodamine B (SRB) assay was used to assess cell growth and cytotoxicity of test compounds [29]. Cells were seeded at densities of 3,500 to 5,000 cells per well in 96 well plates overnight and pre-treated for 1 h with ABC transporter modulators: 10 μM fumitremorgin C (FTC; in MCF7MX and MCF7 cells), or 0.3 μM of zosuquidar (in 3T3 and 3T3-MDR1). Cells were then treated with test compounds for 72 h, at 37°C. After drug treatment, cells were fixed by addition of 50% trichloroacetic acid (TCA), and the plates washed and dried to allow staining with 0.4% solution of sulforhodamine B (Sigma) in 1% acetic acid for 30 minutes. Excess dye was removed upon washing with 1% acetic acid. Plates were dried and bound protein was solubilised upon addition of 150 μL of 10 mM Tris base buffer. Absorbance was measured at 540 nm using Thermo Multiskan-Ex plate reader. Cell viability versus compound concentration curves were plotted as a percentage of control cells. The concentration of drug that gave 50% inhibition in cell growth (GI50) was extrapolated from these curves using the sigmoid curve fit with variable slope in Prism (GraphPad Prism version 5.01, GraphPad Software, San Diego California USA). Three to six replicate wells were used for each drug concentration and experiments were carried out on three separate occasions for each compound.

[3] = tested on: ABCB1 (MDR1); test: as above; details: mouse, 3T3-MDR1 cells (ABCB1 expressing), 72 h, SRB
Experimental: as §1

IC50 [1]: 0.008 to 0.04 µM
SMILES: CCOc1cc2ncc(C#N)c(Nc3ccc(F)c(Cl)c3)c2cc1NC(=O)/C=C/CNCc1cn(CCF)nn1 [FED6, (2E)-N-{4-[(3-chloro-4-fluorophenyl)amino]-3-cyano-7-ethoxyquinolin-6-yl}-4-({[1-(2-fluoroethyl)-1H-1,2,3-triazol-4-yl]methyl}amino)-but-2-enamide]
fold increase in GI50 in the ABCB1 overexpressing cell line [2]: > 10 fold
GI50 at 72 h ([3]; with zosuquidar 0.3 μM (1 h pre-treatment), pre-treatment with 0.3 μM zosuquidar): 13.6 ± 0.6 µM
GI50 at 72 h ([3]; without zosuquidar): > 100 µM
